Measurements reported in US8852928B2, “LexA-based chemical-inducible gene expression system for use in transgenic animals” (Temasek Life Sciences Laboratory Limited, priority 2007, dated 2014).
“Also recorded” adds a separate entry of the source.

How the values were obtained:
LexPR transactivator [1] = target: T1, LexPR transactivator (Homo sapiens, UniProt P06401); experiment: Trans-activation of mCherry effector in effector and double transgenic fish; format: in vivo, zebrafish; conditions: 1 μM
T1 construct: expressed in transfected cells; host or cells: germline-transgenic zebrafish (Danio rerio) carrying the Ds transposon driver cassette pDs(krt8:LPR-LOP:G4) or derivatives
T1 sequence (P06401 640-914): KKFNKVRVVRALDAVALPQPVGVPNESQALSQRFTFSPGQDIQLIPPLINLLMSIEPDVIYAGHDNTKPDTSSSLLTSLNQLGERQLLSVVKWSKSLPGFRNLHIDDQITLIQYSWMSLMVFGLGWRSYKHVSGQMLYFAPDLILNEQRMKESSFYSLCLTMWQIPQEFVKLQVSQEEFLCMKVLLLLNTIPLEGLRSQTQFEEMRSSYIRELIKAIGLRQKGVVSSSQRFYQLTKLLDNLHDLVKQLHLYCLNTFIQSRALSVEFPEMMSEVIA
Method: Two independent driver lines with different LexPR transactivator expression patterns (shown on FIGS. 4A, 4D) were crossed with two independent transgenic effector lines, which carried mCherry gene under control of the LexOP. […] Images were captured at 96 hours post fertilization.
This effector cassette harbors a gene for red fluorescent protein “mCherry” under the control of the LexOP sequence (Example 3).

LexPR transactivator [2] = target: T1, LexPR transactivator; experiment: Inducible expression of EGFP-KrasV12 in transgenic zebrafish; format: in vivo; conditions: 10 μM at 10 hpf onwards
From the text: Transgenic zebrafish line harboring insertion of the binary driver construct Ds(krt8:LPR-LOP:EGFP-Kras^V12) containing EGFP-Kras^V12 under control of the LexOP, F2 (FIG. 12a-12e, FIG. 12g). FIG. 12a: 24 hpf, no induction. […] FIG. 12f: Transgenic fish harboring the unmodified driver-reporter construct pDs(krt8:LPR-LOP:G4) containing EGFP gene under control of the LexOP.

LexPR transactivator [3] = target: T1, LexPR transactivator; experiment: Rate of transcription induction, whole mount in situ hybridization for EGFP transcript; format: in vivo, zebrafish; conditions: 1 μM
Method: RNA in situ hybridization: Whole mount in situ hybridization using antisense RNA probes for full length LexPR transactivator and EGFP labeled with digoxigenin (Roche, USA) was carried out as previously described (Oxtoby and Jowett, 1993). After in situ hybridization stained embryos were mounted in PBS-glycerol and viewed using Nikon SMZ1600 stereomicroscope. Images were taken with Nikon DXM1200F digital camera with the Nikon ACT-1 software and processed using Adobe Photoshop 7.0.1 software.
To accurately estimate the rate of induction, it is more appropriate to measure the transcript rather than the protein product, especially if the gene of interest contains sequences for RNAi, microRNA or other non-coding RNAs.

LexPR transactivator [4] = target: T1, LexPR transactivator; experiment: Time required to switch off EGFP reporter expression after mifepristone withdrawal; format: in vivo, zebrafish; set-up: key to Reporter expression, RU486 incubation / Reporter expression after RU486 withdrawal / Reporter expression, continuous induction (time of RU486 incubation): +: Fluorescence signal is similar to the control.; ±: Fluorescence signal is obviously weaker that in control.; −: No EGFP fluorescence (except autofluorescence)observed using the fluorescent stereomicroscope
From the text: To avoid confusion, the corresponding developmental times are indicated. A Nikon SMZ1600 fluorescent stereomicroscope was used for rough estimation of the EGFP fluorescence.

Effect of induced EGFP-KrasV12 expression on F2 embryos (LexPR transactivator [2]): embryo development was severely affected
Time of induction to maximum transcript level (LexPR transactivator [3]): approximately nine
Reporter expression, RU486 incubation (LexPR transactivator [4]; 1 nM, 1 hour RU486 incubation - withdrawal, at 1 h incubation, 37hpf): −
Reporter expression after RU486 withdrawal (LexPR transactivator [4]; 1 nM, 1 hour RU486 incubation, 12 h after withdrawal, 49hpf): −
Reporter expression after RU486 withdrawal (LexPR transactivator [4]; 1 nM, 1 hour RU486 incubation, 24 h after withdrawal, 61hpf): −
Reporter expression after RU486 withdrawal (LexPR transactivator [4]; 1 nM, 1 hour RU486 incubation, 48 h after withdrawal, 85hpf): −
Reporter expression after RU486 withdrawal (LexPR transactivator [4]; 1 nM, 1 hour RU486 incubation, 72 h after withdrawal, 109hpf): −
Reporter expression after RU486 withdrawal (LexPR transactivator [4]; 1 nM, 1 hour RU486 incubation, 96 h after withdrawal, 133hpf): −
Reporter expression after RU486 withdrawal (LexPR transactivator [4]; 1 nM, 1 hour RU486 incubation, 120 h after withdrawal, 157hpf): −
Reporter expression after RU486 withdrawal (LexPR transactivator [4]; 1 nM, 1 hour RU486 incubation, 144 h after withdrawal, 181hpf): −
Reporter expression, RU486 incubation (LexPR transactivator [4]; 1 nM, 12 hours RU486 incubation - withdrawal, at 12 h incubation, 48hpf): −
Reporter expression after RU486 withdrawal (LexPR transactivator [4]; 1 nM, 12 hours RU486 incubation, 12 h after withdrawal, 60hpf): ±
Reporter expression after RU486 withdrawal (LexPR transactivator [4]; 1 nM, 12 hours RU486 incubation, 24 h after withdrawal, 72hpf): −
Reporter expression after RU486 withdrawal (LexPR transactivator [4]; 1 nM, 12 hours RU486 incubation, 48 h after withdrawal, 96hpf): −
Reporter expression after RU486 withdrawal (LexPR transactivator [4]; 1 nM, 12 hours RU486 incubation, 72 h after withdrawal, 120hpf): −
Reporter expression after RU486 withdrawal (LexPR transactivator [4]; 1 nM, 12 hours RU486 incubation, 96 h after withdrawal, 144hpf): −
Reporter expression after RU486 withdrawal (LexPR transactivator [4]; 1 nM, 12 hours RU486 incubation, 120 h after withdrawal, 168hpf): −
Reporter expression after RU486 withdrawal (LexPR transactivator [4]; 1 nM, 12 hours RU486 incubation, 144 h after withdrawal, 192hpf): −
Minimal time after RU486 withdrawal to turn off the reporter expression (LexPR transactivator [4]; 1 nM, 12 hours induction): 1 days
Reporter expression, continuous induction (time of RU486 incubation) (LexPR transactivator [4]; 1 nM, 24-156 h incubation, 60-192 hpf): ±
Reporter expression, continuous induction (time of RU486 incubation) (LexPR transactivator [4]; 1 nM, 1 h incubation): −
Reporter expression, continuous induction (time of RU486 incubation) (LexPR transactivator [4]; 1 nM, 12 h incubation): −
Reporter expression, continuous induction (time of RU486 incubation) (LexPR transactivator [4]; 1 nM, 13 h incubation, 49hpf): −
Reporter expression, continuous induction (time of RU486 incubation) (LexPR transactivator [4]; 1 nM, 24 h incubation, 60hpf): ±
Reporter expression, RU486 incubation (LexPR transactivator [4]; 10 nM, 1 hour RU486 incubation - withdrawal, at 1 h incubation, 37hpf): −
Reporter expression after RU486 withdrawal (LexPR transactivator [4]; 10 nM, 1 hour RU486 incubation, 12 h after withdrawal, 49hpf): ±
Reporter expression after RU486 withdrawal (LexPR transactivator [4]; 10 nM, 1 hour RU486 incubation, 24 h after withdrawal, 61hpf): −
Reporter expression after RU486 withdrawal (LexPR transactivator [4]; 10 nM, 1 hour RU486 incubation, 48 h after withdrawal, 85hpf): −
Reporter expression after RU486 withdrawal (LexPR transactivator [4]; 10 nM, 1 hour RU486 incubation, 72 h after withdrawal, 109hpf): −
Reporter expression after RU486 withdrawal (LexPR transactivator [4]; 10 nM, 1 hour RU486 incubation, 96 h after withdrawal, 133hpf): −
Reporter expression after RU486 withdrawal (LexPR transactivator [4]; 10 nM, 1 hour RU486 incubation, 120 h after withdrawal, 157hpf): −
Reporter expression after RU486 withdrawal (LexPR transactivator [4]; 10 nM, 1 hour RU486 incubation, 144 h after withdrawal, 181hpf): −
Minimal time after RU486 withdrawal to turn off the reporter expression (LexPR transactivator [4]; 10 nM, 1 hour induction): 1 days
Reporter expression, RU486 incubation (LexPR transactivator [4]; 10 nM, 12 hours RU486 incubation - withdrawal, at 12 h incubation, 48hpf): ±
Reporter expression after RU486 withdrawal (LexPR transactivator [4]; 10 nM, 12 hours RU486 incubation, 12 h after withdrawal, 60hpf): +
Reporter expression after RU486 withdrawal (LexPR transactivator [4]; 10 nM, 12 hours RU486 incubation, 24 h after withdrawal, 72hpf): ±
Reporter expression after RU486 withdrawal (LexPR transactivator [4]; 10 nM, 12 hours RU486 incubation, 48 h after withdrawal, 96hpf): −
Reporter expression after RU486 withdrawal (LexPR transactivator [4]; 10 nM, 12 hours RU486 incubation, 72 h after withdrawal, 120hpf): −
Reporter expression after RU486 withdrawal (LexPR transactivator [4]; 10 nM, 12 hours RU486 incubation, 96 h after withdrawal, 144hpf): −
Reporter expression after RU486 withdrawal (LexPR transactivator [4]; 10 nM, 12 hours RU486 incubation, 120 h after withdrawal, 168hpf): −
Reporter expression after RU486 withdrawal (LexPR transactivator [4]; 10 nM, 12 hours RU486 incubation, 144 h after withdrawal, 192hpf): −
Minimal time after RU486 withdrawal to turn off the reporter expression (LexPR transactivator [4]; 10 nM, 12 hours induction): 2 days
Reporter expression, continuous induction (time of RU486 incubation) (LexPR transactivator [4]; 10 nM, 24-156 h incubation, 60-192 hpf): +
Reporter expression, continuous induction (time of RU486 incubation) (LexPR transactivator [4]; 10 nM, 1 h incubation): −
Reporter expression, continuous induction (time of RU486 incubation) (LexPR transactivator [4]; 10 nM, 12 h incubation): ±
Reporter expression, continuous induction (time of RU486 incubation) (LexPR transactivator [4]; 10 nM, 13 h incubation, 49hpf): ±
Reporter expression, continuous induction (time of RU486 incubation) (LexPR transactivator [4]; 10 nM, 24 h incubation, 60hpf): +
Reporter expression, RU486 incubation (LexPR transactivator [4]; 100 nM, 1 hour RU486 incubation - withdrawal, at 1 h incubation, 37hpf): −
Reporter expression after RU486 withdrawal (LexPR transactivator [4]; 100 nM, 1 hour RU486 incubation, 12 h after withdrawal, 49hpf): +
Reporter expression after RU486 withdrawal (LexPR transactivator [4]; 100 nM, 1 hour RU486 incubation, 24 h after withdrawal, 61hpf): +
SMILES: CC#C[C@]1(O)CC[C@H]2[C@@H]3CCC4=CC(=O)CCC4=C3[C@@H](c3ccc(N(C)C)cc3)C[C@@]21C [mifepristone]
Background mCherry fluorescence in effector lines (effector cassette only) (LexPR transactivator [1]): No background mCherry fluorescence was detected; also recorded: not detected
Reporter expression in double transgenic embryos (driver and effector) (LexPR transactivator [1]): both reporters (EGFP/driver and mCherry/effector) were co-expressed in the same cells
